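Exposure lasted 48 hours, with cells grown in 96-well plates and compounds tested at five concentrations. GI50: concentration for 50% inhibition of growth.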 The source made the active and inactive calls. No stated cut-off is given here; in the data, active = GI50 up to about 1.1 µM and inactive = higher.
Assays:
Assay in all cases: inhibition of tumour cell growth, NCI panel, 48 h
HL-60 = tested on: HL-60
NCI-H23 = tested on: NCI-H23
NCI-H522 = tested on: NCI-H522
RXF 393 = tested on: RXF 393
TK-10 = tested on: TK-10
UACC-62 = tested on: UACC-62
KM-20L2 = tested on: KM-20L2
XF498 = tested on: XF498
M14 = tested on: M14
A549 = tested on: A549
SNB-75 = tested on: SNB-75
OVCAR-3 = tested on: OVCAR-3
OVCAR-8 = tested on: OVCAR-8
SW-620 = tested on: SW-620
LXFL 529 = tested on: LXFL 529
HCT-116 = tested on: HCT-116
K562 = tested on: K562
DLD-1 = tested on: DLD-1
SK-MEL-2 = tested on: SK-MEL-2
CCRF-CEM = tested on: CCRF-CEM
KM12 = tested on: KM12
UACC-257 = tested on: UACC-257
COLO 205 = tested on: COLO 205
HOP-92 = tested on: HOP-92
MOLT-4 = tested on: MOLT-4
A498 = tested on: A498
ACHN = tested on: ACHN
U-251 = tested on: U-251
HCT-15 = tested on: HCT-15
RPMI-8226 = tested on: RPMI-8226
SN12C = tested on: SN12C
DMS-114 = tested on: DMS-114
SF-295 = tested on: SF-295
DMS-273 = tested on: DMS-273
HCC 2998 = tested on: HCC 2998
SK-MEL-5 = tested on: SK-MEL-5
CAKI-1 = tested on: CAKI-1
OVCAR-5 = tested on: OVCAR-5
NCI-H460 = tested on: NCI-H460
M19-MEL = tested on: M19-MEL
HT-29 = tested on: HT-29
SF-268 = tested on: SF-268
SK-MEL-28 = tested on: SK-MEL-28
OVCAR-4 = tested on: OVCAR-4
SNB-19 = tested on: SNB-19
HOP-62 = tested on: HOP-62
Malme-3M = tested on: Malme-3M
IGROV-1 = tested on: IGROV-1
SF-539 = tested on: SF-539
EKVX = tested on: EKVX
UO-31 = tested on: UO-31
SK-OV-3 = tested on: SK-OV-3
HOP-18 = tested on: HOP-18
SR = tested on: SR
SNB-78 = tested on: SNB-78
LOX IMVI = tested on: LOX IMVI
NCI-H226 = tested on: NCI-H226
786-0 = tested on: 786-0

SMILES: CCNc1cnc2c(n1)c(=O)n(C)c(=O)n2C
- GI50 (HL-60): > 100 µM (inactive)
- GI50 (NCI-H23): > 100 µM (inactive)
- GI50 (NCI-H522): > 100 µM (inactive)
- GI50 (RXF 393): 84.9 µM (inactive)
- GI50 (TK-10): > 100 µM (inactive)
- GI50 (UACC-62): > 100 µM (inactive)
- GI50 (KM-20L2): > 100 µM (inactive)
- GI50 (XF498): > 100 µM (inactive)
- GI50 (M14): > 100 µM (inactive)
- GI50 (A549): > 100 µM (inactive)
- GI50 (SNB-75): 48.9 µM (inactive)
- GI50 (OVCAR-3): > 100 µM (inactive)
- GI50 (OVCAR-8): > 100 µM (inactive)
- GI50 (SW-620): > 100 µM (inactive)
- GI50 (LXFL 529): > 100 µM (inactive)
- GI50 (HCT-116): > 100 µM (inactive)
- GI50 (K562): > 100 µM (inactive)
- GI50 (DLD-1): > 100 µM (inactive)
- GI50 (SK-MEL-2): > 100 µM (inactive)
- GI50 (CCRF-CEM): > 100 µM (inactive)
- GI50 (KM12): > 100 µM (inactive)
- GI50 (UACC-257): > 100 µM (inactive)
- GI50 (COLO 205): > 100 µM (inactive)
- GI50 (HOP-92): > 100 µM (inactive)
- GI50 (MOLT-4): > 100 µM (inactive)
- GI50 (A498): > 100 µM (inactive)
- GI50 (ACHN): > 100 µM (inactive)
- GI50 (U-251): > 100 µM (inactive)
- GI50 (HCT-15): > 100 µM
- GI50 (RPMI-8226): > 100 µM (inactive)
- GI50 (SN12C): > 100 µM (inactive)
- GI50 (DMS-114): > 100 µM (inactive)
- GI50 (SF-295): > 100 µM (inactive)
- GI50 (DMS-273): > 100 µM (inactive)
- GI50 (HCC 2998): > 100 µM (inactive)
- GI50 (SK-MEL-5): > 100 µM (inactive)
- GI50 (CAKI-1): > 100 µM (inactive)
- GI50 (OVCAR-5): > 100 µM (inactive)
- GI50 (NCI-H460): > 100 µM (inactive)
- GI50 (M19-MEL): > 100 µM (inactive)
- GI50 (HT-29): > 100 µM (inactive)
- GI50 (SF-268): > 100 µM (inactive)
- GI50 (SK-MEL-28): > 100 µM (inactive)
- GI50 (OVCAR-4): > 100 µM (inactive)
- GI50 (SNB-19): > 100 µM (inactive)
- GI50 (HOP-62): > 100 µM (inactive)
- GI50 (Malme-3M): > 100 µM (inactive)
- GI50 (IGROV-1): > 100 µM (inactive)
- GI50 (SF-539): > 100 µM (inactive)
- GI50 (EKVX): 34.1 µM (inactive)
- GI50 (UO-31): > 100 µM (inactive)
- GI50 (SK-OV-3): > 100 µM (inactive)

SMILES: CCCCCCC(O)CC[C@H]1CCC[C@@H](C)N1 (some centres undefined)
- GI50 (HOP-18): > 100 µM (inactive)
- GI50 (SR): > 100 µM (inactive)
- GI50 (HL-60): > 100 µM (inactive)
- GI50 (NCI-H23): > 10 µM (inactive)
- GI50 (NCI-H522): > 100 µM (inactive)
- GI50 (RXF 393): > 100 µM (inactive)
- GI50 (TK-10): > 100 µM (inactive)
- GI50 (SNB-78): > 100 µM (inactive)
- GI50 (UACC-62): 72.6 µM (inactive)
- GI50 (KM-20L2): > 10 µM (inactive)
- GI50 (M14): > 100 µM (inactive)
- GI50 (LOX IMVI): > 100 µM (inactive)
- GI50 (A549): > 100 µM (inactive)
- GI50 (SNB-75): > 31.6 µM (inactive)
- GI50 (OVCAR-3): > 10 µM (inactive)
- GI50 (OVCAR-8): > 10 µM (inactive)
- GI50 (SW-620): > 100 µM (inactive)
- GI50 (LXFL 529): > 100 µM (inactive)
- GI50 (HCT-116): > 100 µM (inactive)
- GI50 (K562): > 100 µM (inactive)
- GI50 (DLD-1): > 100 µM (inactive)
- GI50 (SK-MEL-2): > 10 µM (inactive)
- GI50 (CCRF-CEM): > 100 µM (inactive)
- GI50 (KM12): > 10 µM (inactive)
- GI50 (NCI-H226): > 100 µM (inactive)
- GI50 (UACC-257): > 10 µM (inactive)
- GI50 (COLO 205): > 31.6 µM (inactive)
- GI50 (HOP-92): > 100 µM (inactive)
- GI50 (MOLT-4): > 100 µM (inactive)
- GI50 (A498): > 10 µM (inactive)
- GI50 (ACHN): > 100 µM (inactive)
- GI50 (U-251): > 31.6 µM (inactive)
- GI50 (HCT-15): > 31.6 µM
- GI50 (RPMI-8226): > 100 µM (inactive)
- GI50 (SN12C): > 100 µM (inactive)
- GI50 (DMS-114): > 31.6 µM (inactive)
- GI50 (SF-295): > 31.6 µM (inactive)
- GI50 (DMS-273): > 100 µM (inactive)
- GI50 (HCC 2998): > 19.9 µM (inactive)
- GI50 (SK-MEL-5): 55 µM (inactive)
- GI50 (CAKI-1): > 100 µM (inactive)
- GI50 (OVCAR-5): > 10 µM (inactive)
- GI50 (NCI-H460): > 100 µM (inactive)
- GI50 (M19-MEL): > 31.6 µM (inactive)
- GI50 (HT-29): 29 µM (inactive)
- GI50 (SF-268): > 31.6 µM (inactive)
- GI50 (SK-MEL-28): > 31.6 µM (inactive)
- GI50 (OVCAR-4): > 10 µM (inactive)
- GI50 (SNB-19): > 10 µM (inactive)
- GI50 (HOP-62): > 31.6 µM (inactive)
- GI50 (Malme-3M): > 100 µM (inactive)
- GI50 (IGROV-1): > 100 µM (inactive)
- GI50 (SF-539): > 100 µM (inactive)
- GI50 (EKVX): > 100 µM (inactive)
- GI50 (UO-31): > 84.3 µM (inactive)
- GI50 (786-0): > 10 µM (inactive)
- GI50 (SK-OV-3): > 100 µM (inactive)
